The values that follow come from patent US20190030036A1, “PHOSPHODIESTERASE INHIBITOR TREATMENT” (Cyrano Therapeutics, Inc., priority 2013, published 2019).

Molecules are shown by their SMILES.

The test system of one data set is patients with hyposmia. The data set can be described thus: Side effects of oral theophylline (Example 1). The data set is classed as in vivo, human. The note with it: oral theophylline 200-800 mg daily in divided doses in middle of meals. An excerpt:
Patients were required to take the drug in divided doses in middle of meals (breakfast and lunch).

The test system of data set [1] is patients with hyposmia and hypogeusia. The data set can be described thus: Gustometry (DT, RT, ME, HR for 4 tastants) (Example 8). The data set is classed as in vivo, human. An excerpt: (§1) Measurements included determination of detection thresholds (DTs), recognition thresholds (RTs), magnitude estimation (ME), and hedonic response (HR) for 4 odors (e.g., pyridine [dead fish], nitrobenzene [bitter almond], thiophene [petroleum], and amyl acetate [banana oil]) (olfactometry) and for 4 tastants (e.g., sodium chloride [salt], sucrose [sweet], […] [sour], and urea [bitter]) (gustometry).

Data set [2] shares this test system. Briefly: Olfactometry (DT, RT, ME, HR for 4 odors) (Example 8). The data set is classed as in vivo, human. The following applies: intranasal theophylline vs before treatment or after oral theophylline.
Excerpt: as §1

The next data set can be described thus: Body weight (Example 8). The data set is classed as in vivo, human.

For `Cn1c(=O)c2[nH]cnc2n(C)c1=O` [theophylline], the Side effects entry in the data set with patients with hyposmia was “generally minimal”. Also, in data set [1] (intranasal theophylline vs before any treatment or after oral theophylline), the “Magnitude estimations for all tastants” value is “higher (more intense)”. The “DTs and RTs for all tastants” value in data set [1] (intranasal theophylline vs before treatment or after oral theophylline) is listed as “lower (more sensitive)”. In data set [2], the “DTs and RTs for each odor” value is recorded as “lower (more sensitive)”; the “Magnitude estimations for each odor” value was “higher (more intense)”. In addition, the “mean (SEM) weight increase from pretreatment values” in “Body weight (Example 8)” (intranasal theophylline 20 μg/d in each naris) is 2.5 (0.5) kg. In the data set “Body weight (Example 8)” (oral theophylline 200 to 800 mg/d), the “mean (SEM) weight increase from pretreatment values” is given as 1.5 (0.4) kg. In addition, the “mean serum theophylline level” value (during intranasal theophylline 20 μg/d in each naris) is given as 0.0 (0.0). Besides, the “mean (SEM) serum theophylline level” value (human, in vivo, po) is 6.4 (2.0) mg/L.
